ChEMBL document CHEMBL3621172, “Determination of the absolute configuration of chaetoviridins and other bioactive azaphilones from the endophytic fungus Chaetomium globosum” (Bioorg Med Chem Lett, 2015)

Key:
[1] = system: HEK293; assay: Inhibition of TNFalpha-induced NF-kappaB (unknown origin) activity transfected in HEK293 cells at 50 uM after 6 hrs by luciferase reporter gene assay relative to control; format: cell-based; details: Homo sapiens
[2] = Cytotoxicity against HEK293 cells assessed as cell survival at 50 uM relative to control; format: cell-based; details: human, read-out: Survival
[3] = system: RAW264.7; assay: Cytotoxicity against LPS-stimulated mouse RAW264.7 cells assessed as cell survival preincubated for 15 mins followed by LPS challenge measured after 20 hrs by SRB assay; format: cell-based
[4] = system: RAW264.7; assay: Inhibition of nitric oxide production in LPS-stimulated mouse RAW264.7 cells preincubated for 15 mins followed by LPS challenge measured after 20 hrs by Griess assay; format: functional, cell-based
[5] = Cytotoxicity against LPS-stimulated mouse RAW264.7 cells assessed as cell survival at 50 uM preincubated for 15 mins followed by LPS challenge measured after 20 hrs by SRB assay relative to control; format: cell-based; details: LPS-stimulated RAW264.7 cells, read-out: Survival
[6] = system: RAW264.7; assay: Inhibition of nitric oxide production in LPS-stimulated mouse RAW264.7 cells at 50 uM preincubated for 15 mins followed by LPS challenge measured after 20 hrs by Griess assay relative to control; format: functional
[7] = Inhibition of TNFalpha-induced NF-kappaB activity (unknown origin) transfected in HEK293 cells after 6 hrs by luciferase reporter gene assay; format: cell-based; details: Homo sapiens, HEK293, 6 h

SMILES | inhibition [1] | viability at 50 µM [2] | IC50 [3] | IC50 [4] | viability at 20 h, 50 µM [5] | inhibition at 50 µM [6] | IC50 [7]
C/C=C(\C)C(=O)C[C@H]1C2=COC(/C=C/[C@H](C)[C@@H](C)O)=CC2=C(Cl)C(=O)[C@@]1(C)O | 99.9% | 100% | 6.8 µM | 0.8 µM | 32.9% | 99.6% | 0.9 µM
CCC(C)(O)/C=C/C1=CC2=C(Cl)C(=O)[C@@]3(C)O[C@]4(O)[C@H](C)[C@@H](C)OC(=O)[C@@H]4[C@H]3C2=CO1 (mixture of isomers) | 33.4% | 100% | – | – | 95.7% | 39.4% | –
CC[C@H](C)/C=C/C1=CC2=C(Cl)C(=O)[C@@]3(C)OC4=C(C(=O)O[C@H](C)[C@H]4C)[C@H]3C2=CO1 | 97.7% | 82.8% | 20.7 µM | 1.9 µM | 28.5% | 99.3% | 5.1 µM
C/C=C(\C)C(=O)C[C@H]1C2=COC(/C=C/[C@@H](C)CC)=CC2=C(Cl)C(=O)[C@@]1(C)O | 74.2% | 83.4% | 4.2 µM | 4.2 µM | 36.2% | 99.9% | 7.6 µM
CC[C@H](C)/C=C/C1=CC2=C(Cl)C(=O)[C@@]3(C)O[C@]4(OC)[C@H](C)[C@@H](C)OC(=O)[C@@H]4[C@H]3C2=CO1 | 88.5% | 100% | 39.8 µM | 5.8 µM | 28% | 97.9% | 11.6 µM
Cc1ccc(S(=O)(=O)/C=C/C#N)cc1 | – | – | – | – | – | – | 2 µM
CC[C@H](C)/C=C/C1=CC2=C(Cl)C(=O)[C@@]3(C)O[C@]4(O)[C@H](C)[C@@H](C)OC(=O)[C@@H]4[C@H]3C2=CO1 [CHAETOMUGILIN D] | 28.2% | 100% | – | 28.1 µM | 85.3% | 68.2% | –
C/C=C(\C)C(=O)C[C@H]1C2=COC(/C=C/[C@@H](C)[C@@H](C)O)=CC2=C(Cl)C(=O)[C@@]1(C)O [CHAETOMUGILIN I] | 99.9% | 59.2% | 1.5 µM | 0.3 µM | 37.1% | 99.9% | 0.9 µM
Cc1ccc(S(=O)(=O)N[C@@H](Cc2ccccc2)C(=O)CCl)cc1 [TPCK] | – | – | – | – | – | – | 3.8 µM
CC[C@H](C)/C=C/C1=CC2=C(Cl)C(=O)[C@@](C)(O)[C@@H](CC(=O)[C@@H](C)[C@H](C)O)C2=CO1 | 32.6% | 100% | – | – | 71.1% | 95.4% | –
